Measured values published in EP1020531A2, “Use of spore adhesion assays in fungicide screening” (priority 1999, dated 2000).
≈ marks a conversion by molar mass, not a printed value.

Experiments:
Magnaporthe grisea = type: cell-based; settings: for EC50 (ppm): inhibition of adhesion, YEG, 25°C, 6 hours; for inhibition of germination-associated adhesion: statement in words
Botrytis cinerea spores [1] = assay: Spore adhesion assay in 96-well polystyrene microtiter plates (sulforhodamine B); type: cell-based; settings: 25°C, 5.5 hours; for EC50: Botrytis cinerea, read-out: Inhn. of Spore Adhesion (EC50, ppm) Microtiter plates
Description: (§1) Botrytis cinerea was grown at room temperature under fluorescent lights on potato dextrose agar (PDA), and subcultured every 14 days. To prepare spore suspensions, 20 ml sterile milliQ™ water was added to plates (10-14 days old) and the surface scraped gently with a sterile loop. The fluid was filtered through glass wool to remove mycelial fragments, then the spore density was adjusted to the desired concentration.
(§2) For adhesion assays in microtiter plates, stock solutions of test compounds were prepared in DMSO then diluted in SDB such that the DMSO concentration after dilution was ≤2%. Two-fold serial dilutions of these test compound solutions were made in SDB (100 µl) in 96-well flat-bottomed microtiter plates. Spore suspension (100 µl at 2X10^5 spores/ml) was added to the wells, and the plates were incubated at 25°C for 5.5 hours. The medium containing unbound spores was removed by inverting and flicking the microtiter plate to remove as much liquid as possible.

Botrytis cinerea spores [2] = assay: Spore adhesion assay in polystyrene counting vials (Coulter Counter); type: cell-based; settings: 25°C, 5.5 h; for EC50: Botrytis cinerea, read-out: Inhn. of Spore Adhesion (EC50, ppm) Counting vials
Description: as §1
Various fungicides were evaluated for their abilities to inhibit germination-associated spore adhesion to polystyrene counting vials, polymethylpentene (Permanox®) chamber slides and 96-well flat-bottomed polystyrene microtiter plates, and for their effects on spore germination and mycelial growth (table below). Adhesion assays in chamber slides and germination assays were performed as in Example 1 with incubation at 25°C for 5.5 h. Adhesion assays in counting vials were conducted in 20 ml capacity polystyrene counting vials (VWR cat. no. 14310-640). Counting vials received 5 µl of DMSO (controls) or test compound dissolved in DMSO, followed by 500 µl of SDB. Aqueous spore suspension (500 µl) at 200,000 spores/ml was added, mixed gently and the vials or slides incubated at 25°C for 5.5 h. To determine the numbers of unbound spores 15 ml of counting fluid was added, vials were capped and inverted gently 5 times, then counted using a Coulter Counter®.

[3] = tested on: Colletotrichum lagenarium spores; assay: Spore germination assay; type: cell-based; settings: for Germination EC50 (ppm): 8 h
[4] = tested on: Colletotrichum lagenarium spores; type: cell-based; settings: SDB with Tween 20 (40 ppm), 8 h
Botrytis cinerea spores [5] = assay: Spore germination assay (microscopic examination); type: cell-based; settings: 25°C, 5.5 h; for EC50: Botrytis cinerea, read-out: Inhn. of Germination EC50 (ppm)
[6] = tested on: Colletotrichum lagenarium; assay: Mycelial growth inhibition, poison agar assay; type: cell-based
Botrytis cinerea spores [7] = assay: microbe, parasite or virus in culture; type: cell-based; settings: 5.5 h; for EC50: Botrytis cinerea, read-out: Inhn. of Spore Adhesion (EC50, ppm) Chamber Slides
[8] = tested on: Colletotrichum lagenarium spores; assay: Spore adhesion assay in 96-well polystyrene microtiter plates; type: cell-based; settings: for Inhn. of Adhesion (EC50, ppm) Microtiter plates: SDB with Tween 20 (40 ppm), 8 h
Description: as §2
Colletotrichum lagenarium was grown at 25°C in the dark on potato dextrose agar and subcultured every 7-14 days. To prepare spore suspensions, 15 ml sterile water was added to plates (7-10 days old) and the plates agitated gently on a gyrotary shaker for 10 min to release spores. The resulting spore suspension was filtered through glass wool and adjusted to the desired concentration. Spore adhesion assays and germination assays were conducted as outlined in Example 1 for Botrytis except that the SDB medium contained Tween™ 20 (40 ppm), and the spore inoculum was prepared at 5X10^5 spores/ml. Data in the table below show a time-dependent adhesion of spores to the slide which closely parallels the time-course for spore germination.
Various fungicides were evaluated for their abilities to inhibit spore adhesion in 96-well flat-bottomed polystyrene microtiter plates and Permanox® chamber slides, and for their effects on spore germination and mycelial growth. Assays were conducted as outlined in Example 2 for Botrytis except that the SDB medium contained Tween™ 20 (40 ppm), the spore inoculum was prepared at 5X10^5 spores/ml, and 8 h incubation was used for the adhesion and germination assays. For each compound tested, EC50 values for inhibition of adhesion to microtiter plates and chamber slides were similar. Spore adhesion was sensitive to all compounds which inhibited germination at low concentrations (<0.2 ppm).

Botrytis = assay: Mycelial growth inhibition, poison agar assay; settings: for EC50: Botrytis, 72 h, read-out: Mycelial Growth Inhn. EC50 (ppm)
Description: Inhibition of mycelial growth was evaluated in poison agar assays. A 4-fold dilution series of each fungicide to be tested was prepared in DMSO and 125 µl of each dilution was added to 25 ml of molten malt extract agar (20 g malt extract, 20 g glucose, 1 g peptone and 20 g agar per liter). The medium containing test compound was poured immediately into 9 cm diameter petri dishes. Two replicate plates were used for each treatment. Each plate was inoculated with a 7 mm diameter plug taken from the growing edge of a Botrytis culture on PDA. Colony diameters were measured after growth for 3 days in the dark at 25°C. EC50 values were determined from dose-response curves.

[9] = tested on: Aspergillus nidulans spores; assay: Spore adhesion assay in 96-well polystyrene microtiter plates; type: cell-based; settings: statement in words
Description: as §2
Various fungicides were evaluated for their abilities to inhibit spore adhesion in 96-well flat-bottomed polystyrene microtiter plates. Adhesion assays were conducted as outlined in Example 2 for Botrytis except that the spore inoculum was prepared at 2X10^6 spores/ml, and plates were incubated at 37°C for 8 h.

Puccinia recondita = assay: Germination-associated spore adhesion assay in microtiter plates (sulforhodamine B); type: cell-based; settings: for EC50 (ppm): inhibition of adhesion, 0.05% Tween 20, 19°C, 4 hours; for inhibition of germination-associated adhesion: statement in words
Botrytis cinerea spores [10] = assay: Spore adhesion to borosilicate glass vials; type: cell-based
Botrytis cinerea spores [11] = assay: Spore adhesion to polypropylene vials; type: cell-based; settings: 7 hours
Botrytis cinerea spores [12] = assay: Spore adhesion to Plexiglas chamber slides; type: cell-based
Description: Assays were conducted in custom-made chamber slides made of Plexiglas®. Chamber slide wells received 5 µl of DMSO (controls) or kresoxim-methyl dissolved in DMSO, followed by 500 µl of SDB. Aqueous spore suspension (500 µl) at 200,000 spores/ml was added, mixed gently and the vials or slides incubated at 25°C for the desired period. The number of nonadhered spores was determined by transferring the fluid to a counting vial, washing the chamber slide well once by adding 1 ml of counting fluid to the well, shaking gently, and then adding the wash to the counting vial. Counting fluid (14 ml) was added to the vial, and the spores counted using a Coulter Counter®. The number of adhered spores was determined by subtracting the number of nonadhered spores from the total number of spores and was expressed as a percentage (% Adhesion).

Botrytis cinerea spores [13] = assay: Spore adhesion to polyethylene vials; type: cell-based

| SMILES | EC50 (ppm) (Magnaporthe grisea) | inhibition of germination-associated adhesion (Magnaporthe grisea) | Inhn. of Adhesion (EC50, ppm) Chamber slides [4] | Mycelial Growth Inhn. EC50 (ppm) [6] | Inhn. of Adhesion (EC50, ppm) Microtiter plates [8] | EC50 (Botrytis cinerea spores [1]) | Germination EC50 (ppm) ([3]; SDB with Tween 20 (40 ppm)) | EC50 (Botrytis cinerea spores [5]) | EC50 (Botrytis) | EC50 (Botrytis cinerea spores [2]) | EC50 (Botrytis cinerea spores [7]) | inhibition of spore adhesion [9] | EC50 (ppm) (Puccinia recondita) | inhibition of germination-associated adhesion (Puccinia recondita) | further results |
| --- | --- | --- | --- | --- | --- | --- | --- | --- | --- | --- | --- | --- | --- | --- | --- |
| CO/C=C(/C(=O)OC)c1ccccc1Oc1cc(Oc2ccccc2C#N)ncn1 [Azoxystrobin] | 0.064 ppm | potent inhibitors of germination-associated adhesion | 0.014 ppm | >10 ppm | 0.027 ppm |  |  |  |  |  |  |  |  |  | Inhn. of Spore Adhesion (EC50, ppm) Microtiter plates (Botrytis cinerea spores [1]): 0.19 ppm; Inhn. of Spore Adhesion (EC50, ppm) Counting vials (Botrytis cinerea spores [2]): 0.19 ppm; Germination EC50 (ppm) ([3]; 40 ppm): 0.010 ppm; Inhn. of Germination EC50 (ppm) (Botrytis cinerea spores [5]): 0.32 ppm; Inhn. of Spore Adhesion (EC50, ppm) Chamber Slides (Botrytis cinerea spores [7]; Permanox chamber slides, 25°C): 0.28 ppm; Mycelial Growth Inhn. EC50 (ppm) (Botrytis; malt extract agar, 3 days, 25°C): 3.05 ppm |
| COC(=O)Nc1nc2ccccc2[nH]1 [Carbendazim] |  |  | >10 ppm | 0.060 ppm | 1.96 ppm | > 10 µg/mL | >10 ppm | > 25 µg/mL | 0.045 µg/mL (≈ 0.235 µM) |  |  |  |  |  | inhibition of germination ([3]; statement in words): did not inhibit germination; activity in the spore adhesion assay ([8]; statement in words on adhesion to microtiter plates and chamber slides): little or no activity |
| N#Cc1c(Cl)c(Cl)c(Cl)c(C#N)c1Cl [Chlorothalonil] | 0.038 ppm | potent inhibitors of germination-associated adhesion | 0.104 ppm | 7.10 ppm | 0.068 ppm | 0.1 µg/mL (≈ 0.376 µM) | 0.005 ppm | 0.067 µg/mL (≈ 0.252 µM) | 0.35 µg/mL (≈ 1.32 µM) | 0.093 µg/mL (≈ 0.35 µM) | 0.089 µg/mL (≈ 0.335 µM) | highly potent inhibitors of spore adhesion | 0.473 ppm | inhibited germination-associated adhesion |  |
| N#Cc1c[nH]cc1-c1cccc(Cl)c1Cl [Fenpiclonil] |  |  |  |  |  | 0.09 µg/mL (≈ 0.38 µM) |  | < 0.0312 µg/mL | 0.0015 µg/mL (≈ 0.00633 µM) | 0.096 µg/mL (≈ 0.405 µM) | 1.89 µg/mL (≈ 7.97 µM) |  |  |  |  |
| O=[N+]([O-])c1cc(C(F)(F)F)c(Cl)c([N+](=O)[O-])c1Nc1ncc(C(F)(F)F)cc1Cl [Fluazinam] |  |  | 0.007 ppm | 0.017 ppm | <0.019 ppm | 0.051 µg/mL (≈ 0.11 µM) | 0.004 ppm | 0.028 µg/mL (≈ 0.0602 µM) | 0.033 µg/mL (≈ 0.071 µM) | 0.041 µg/mL (≈ 0.0882 µM) | 0.071 µg/mL (≈ 0.153 µM) | highly potent inhibitors of spore adhesion | 0.365 ppm | inhibited germination-associated adhesion |  |
| O=C1c2ccccc2C(=O)N1SC(Cl)(Cl)Cl [Folpet] |  |  |  |  |  | 0.33 µg/mL (≈ 1.11 µM) |  | 0.15 µg/mL (≈ 0.506 µM) | 5.5 µg/mL (≈ 18.5 µM) | 0.21 µg/mL (≈ 0.708 µM) | 0.22 µg/mL (≈ 0.742 µM) |  |  |  |  |
| CO/N=C(/C(=O)OC)c1ccccc1COc1ccccc1C [Kresoxim-methyl] | 0.067 ppm | potent inhibitors of germination-associated adhesion | 0.054 ppm | >10 ppm | 0.026 ppm | 0.011 µg/mL (≈ 0.0351 µM) | 0.015 ppm | 0.02 µg/mL (≈ 0.0638 µM) | 0.28 µg/mL (≈ 0.894 µM) | 0.014 µg/mL (≈ 0.0447 µM) | 0.035 µg/mL (≈ 0.112 µM) | highly potent inhibitors of spore adhesion | 0.016 ppm | inhibited germination-associated adhesion | %Adhesion with kresoxim-methyl, 10 ppm (Botrytis cinerea spores [10]; 6 hours): 23.4%; %Adhesion with kresoxim-methyl, 10 ppm (Botrytis cinerea spores [10]; 7 hours): 29.6%; %Adhesion with kresoxim-methyl, 10 ppm (Botrytis cinerea spores [11]): 18.9%; %Adhesion with kresoxim-methyl, 10 ppm (Botrytis cinerea spores [12]; 7 hours): 17.4%; %Adhesion with kresoxim-methyl, 10 ppm (Botrytis cinerea spores [12]; 8 hours): 26.2%; %Adhesion with kresoxim-methyl, 10 ppm (Botrytis cinerea spores [13]; 6 hours): 12.7%; %Adhesion with kresoxim-methyl, 10 ppm (Botrytis cinerea spores [13]; 7 hours): 15.1% |
| Cc1cc(C)nc(Nc2ccccc2)n1 [Pyrimethanil] |  |  |  |  |  | > 10 µg/mL |  | 8.6 µg/mL (≈ 43.2 µM) | 0.48 µg/mL (≈ 2.41 µM) | > 25 µg/mL | > 25 µg/mL |  |  |  |  |
| CN(C)C(=S)SSC(=S)N(C)C [Thiram] |  |  |  |  |  | 1.86 µg/mL (≈ 7.74 µM) |  | < 0.625 µg/mL | 0.78 µg/mL (≈ 3.24 µM) | 1.04 µg/mL (≈ 4.33 µM) | 1.87 µg/mL (≈ 7.78 µM) |  |  |  |  |
| C=CC1(C)OC(=O)N(c2cc(Cl)cc(Cl)c2)C1=O (centres unmarked) [Vinclozolin] |  |  |  |  |  | 0.62 µg/mL (≈ 2.17 µM) |  | < 0.5 µg/mL | 0.11 µg/mL (≈ 0.384 µM) | 0.56 µg/mL (≈ 1.96 µM) | > 5 µg/mL |  |  |  |  |
